Earlier results in patent US20120245171A1, “BENZPYRAZOLE DERIVATIVES AS INHIBITORS OF PI3 KINASES” (GLAXO GROUP LIMITED, priority 2009, published 2012).
Read-outs that look alike come from different tables or passages of the source.

Assays:
Class I PI3-kinases = conditions: each of the Class I PI3-kinases
CK2 protein kinase = CK2 protein kinase (Homo sapiens, UniProt P68400)
neutrophils [1] = conditions: for superoxide release: neutrophils
neutrophils [2] = conditions: treatment of neutrophils; Thelen et al. 1994

Chain of CK2 protein kinase (P68400 whole entry): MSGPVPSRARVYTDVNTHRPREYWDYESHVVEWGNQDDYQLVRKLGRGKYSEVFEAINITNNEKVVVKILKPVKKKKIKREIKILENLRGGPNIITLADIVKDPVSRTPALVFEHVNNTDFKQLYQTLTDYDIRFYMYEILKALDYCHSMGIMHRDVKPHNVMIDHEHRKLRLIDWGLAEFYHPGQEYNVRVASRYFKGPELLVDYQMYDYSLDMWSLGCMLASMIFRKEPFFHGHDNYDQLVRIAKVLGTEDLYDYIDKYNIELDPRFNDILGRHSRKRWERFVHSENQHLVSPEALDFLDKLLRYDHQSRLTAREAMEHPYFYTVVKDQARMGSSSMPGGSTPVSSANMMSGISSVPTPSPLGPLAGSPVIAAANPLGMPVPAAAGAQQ

Which results are given for O=c1cc(N2CCOCC2)oc2c(-c3ccccc3)cccc12 [LY294002]?
IC50 (Class I PI3-kinases; Fruman et al. 1998, read-out: IC50 against each of these PI3-kinases): 15 to 20 µM; IC50 (CK2 protein kinase): 5 to 10 µM; neutrophil migration (neutrophils [1]): block; superoxide release (neutrophils [1]): block

With COC[C@H]1OC(=O)c2coc3c2[C@@]1(C)C1=C(C3=O)[C@@H]2CCC(=O)[C@@]2(C)C[C@H]1OC(C)=O [wortmannin] as the compound, how does the IC50 (Class I PI3-kinases; read-out: IC50 against each of the various Class I PI3-kinases) read?
The IC50 was 0.001 to 0.01 µM.

And the “fMLP-induced respiratory burst response” value (neutrophils [2])?
Its value is “prevents”.

And the neutrophil migration (neutrophils [1])?
Its neutrophil migration is “block”.

And the superoxide release (neutrophils [1])?
Its superoxide release is “block”.
